“Also recorded” adds a separate entry of the source.
Tests used:
[1] = system: bleomycin-induced pulmonary fibrosis in C57Bl/6 mice; test: Late treatment of pulmonary fibrosis induced by bleomycin in C57Bl/6 mice; format: in vivo, mouse; details: for lung pathology with trichrome stain (fibrosis): FIG. 14; for lung pathology with H & E (fibrosis): FIG. 15; for overall antifibrotic treatment effect: GM-CT-01 120 mg/kg, GR-MD-02 60 mg/kg IV days 10, 13, 16, 20; for Modified Ashcroft Index score vs vehicle: change did not reach significance, FIG. 11; for general fibrosis score vs vehicle: differences did not reach statistical significance, FIG. 12; for Inflammation score vs vehicle: differences not statistically significant, FIG. 13; for percent of fibrotic lung (percent of lung affected): not statistically significant
Protocol: In these experiments, treatment was initiated after the time when the inflammatory reaction is known to have subsided and the process is one of primarily fibrogenesis. Pulmonary fibrosis was induced in animals using bleomycin at 2.25 U/kg at day 0 as described above. Animals were treated using a GM compound intravenously (GM-CT-01) or GA-RG compound intravenously (GR-MD-02) as described in Table 2.
Animals were euthanized on Day 21 and the lungs were weighed. Data shown in FIG. 9 represent group means and standard error of the means.
The total lung hydroxyproline content was measured. Data shown in FIG. 10 represent group mean and expressed as microgram of hydroxyproline per mg of lung tissue.

[2] = system: bleomycin-induced pulmonary fibrosis in C57Bl/6 mice; test: Early treatment of pulmonary fibrosis induced by bleomycin in C57Bl/6 mice; format: in vivo, mouse; details: for lung weight vs vehicle-treated mice / total lung hydroxyproline content vs vehicle-treated mice: Day 21, GM-CT-01 120 mg/kg; for lung weight vs vehicle-treated mice: GR-MD-02 60 mg/kg IV days -1, 2, 6, 9, 13, 16, 20, FIG. 2; for total lung hydroxyproline content vs vehicle-treated mice / Modified Ashcroft Index score, difference vs vehicle, p (unpaired t-test): GR-MD-02 60 mg/kg IV; for lung pathology with trichrome stain (fibrosis): FIG. 7; for Modified Ashcroft Index Score compared to the vehicle group: histologic analysis; for general fibrosis score, difference vs vehicle, p (unpaired t-test) / Inflammation score, difference vs vehicle, p (unpaired t-test) / Modified Ashcroft Index score, difference vs vehicle, p (unpaired t-test): outliers removed; for general fibrosis score, difference vs vehicle, p (unpaired t-test): FIG. 5; for Inflammation score, difference vs vehicle, p (unpaired t-test): FIG. 6; for Modified Ashcroft Index score, difference vs vehicle, p (unpaired t-test): GM-CT-01 120 mg/kg, FIG. 4
Protocol: Instillation of bleomycin in the trachea induces changes similar to diffuse pulmonary fibrosis and/or fibrosing alveolitis in humans. There is an increase in deposition and net synthesis of collagen in the lung with this model.
This model can be used to evaluate therapy started in the inflammatory phase of the belomycin insult (started<7 day after bleomycin) or after the inflammatory phase and during fibrogenesis (started>7 day after bleomycin). In this example, early therapy was evaluated.
The GM (GM-CT-01) and GA-RG (GR-MD-02) compounds were evaluated as preventative therapy in this mouse model.
Pulmonary fibrosis was induced in animals using intra-tracheal instillation of bleomycin at 2.25 U/kg. Animals were treated using a GM compound (GM-CT-01) or GA-RG compound (GR-MD-02) delivered by intravenous infusion as described in Table 1.
Animals were euthanized on Day 21 and the lungs were weighed. Data shown in FIG. 2 represent group means and SEM. Statistical comparison among all groups was performed using one-way ANOVA with Newman-Keuls multiple comparison test.
After euthanasia, the total lung hydroxyproline content was measured. Data shown in FIG. 3 represent group mean and SEM and expressed as microgram of hydroxyproline per mg of lung tissue. Statistical comparison to the “vehicle+Bleomycin” group was performed using one-way ANOVA with Holm-Sidak's multiple comparison test.

[3] = comparison in the experience of the laboratory

| Substance | lung weight vs control animals ([1]; Day 21, GR-MD-02 60 mg/kg IV days 10, 13, 16, 20, FIG. 9) | reduction of the increase in hydroxyproline ([1]; Day 21, GR-MD-02 60 mg/kg IV days 10, 13, 16, 20, did not reach significance, FIG. 10) [%] | lung pathology with trichrome stain (fibrosis) [1] | lung pathology with H & E (fibrosis) [1] | overall antifibrotic treatment effect [1] | Modified Ashcroft Index score vs vehicle [1] | general fibrosis score vs vehicle [1] | Inflammation score vs vehicle [1] | percent of fibrotic lung (percent of lung affected) [1] | lung weight vs vehicle-treated mice [2] | total lung hydroxyproline content vs vehicle-treated mice ([2]; FIG. 3) | total lung hydroxyproline content vs vehicle-treated mice ([2]; FIG. 3, listed as GA-MD-02) | lung pathology with trichrome stain (fibrosis) [2] | results compared to pirfenadone [2, 3] | Modified Ashcroft Index Score compared to the vehicle group [2] | general fibrosis score, difference vs vehicle, p (unpaired t-test) [2] | Inflammation score, difference vs vehicle, p (unpaired t-test) [2] | Modified Ashcroft Index score, difference vs vehicle, p (unpaired t-test) [2] | total lung hydroxyproline content (in words) ([1]; Day 21, GM-CT-01 120 mg/kg IV days 10, 13, 16, 20, compared with GR-MD-02, FIG. 10) | results compared to treatment with anti-TGFbeta [2, 3] |
| --- | --- | --- | --- | --- | --- | --- | --- | --- | --- | --- | --- | --- | --- | --- | --- | --- | --- | --- | --- | --- |
| galactoarabino-rhamnogalacturonate [GR-MD-02] | decreased lung weight of the GR-MD-02 treated group as compared to control animals, this difference did not reach statistical significance | 50 | effective at reducing fibrosis | marked decrease in fibrous tissue | effective at reducing pulmonary fibrosis; also recorded: strongest anifibrotic effect; also recorded: more effective than GM-CT-01 | reduction in the Aschroft score | reduction in the fibrosis score | reduction in inflammation score | tended to have reduced percent of fibrotic lung | significantly reduce lung weight; also recorded: significant reduction in mean lung weight; also recorded: markedly reduce lung weight | significant reduction; also recorded: markedly reduce | reduce lung hydroxyproline content | effective at reducing fibrosis | superior to the results using pirfenadone | significant reduction | 0.0206 | 0.0508 | 0.0112 |  |  |
| 1,4-β-D-Galactomannan [GM-CT-01] |  |  | less effect | some reduction in the fibrosis | effective at reducing pulmonary fibrosis; also recorded: more modest positive treatment effect | little change | reduction in the fibrosis score | no change | notably reduced | significantly reduce lung weight; also recorded: significant reduction in mean lung weight; also recorded: markedly reduce lung weight | reduce lung hydroxyproline content; also recorded: significant reduction; also recorded: markedly reduce |  | effective at reducing fibrosis | superior to the results using pirfenadone | significant reduction | 0.0979 | 0.0544 | 0.0199 | less of a decrease | superior to treatment with anti-TGFbeta |
